Reference: PMC3914206

Tests used:
Experiment in all cases: KiNativ chemical proteomics profiling in HeLa and PC3 cell lysates
Type in all cases: binding
[1] = target: T1, selected panels of kinases in HeLa and PC3 cell lysates (Homo sapiens, UniProt P49760); conditions: 10 uM; proteome PC3; peptide LTHTDLk[…]; labeling site Lys2
T1 construct: endogenous in cells; host or cells: HeLa and PC3 cell lysates

[2] = target: T2, selected panels of kinases in HeLa and PC3 cell lysates (Homo sapiens, UniProt P42680); conditions: 10 uM; TEC; peptide […]kFPVK; proteome HEL; labeling site Activation Loop
T2 construct: endogenous in cells; host or cells: HeLa and PC3 cell lysates
T2 sequence (P42680 whole entry): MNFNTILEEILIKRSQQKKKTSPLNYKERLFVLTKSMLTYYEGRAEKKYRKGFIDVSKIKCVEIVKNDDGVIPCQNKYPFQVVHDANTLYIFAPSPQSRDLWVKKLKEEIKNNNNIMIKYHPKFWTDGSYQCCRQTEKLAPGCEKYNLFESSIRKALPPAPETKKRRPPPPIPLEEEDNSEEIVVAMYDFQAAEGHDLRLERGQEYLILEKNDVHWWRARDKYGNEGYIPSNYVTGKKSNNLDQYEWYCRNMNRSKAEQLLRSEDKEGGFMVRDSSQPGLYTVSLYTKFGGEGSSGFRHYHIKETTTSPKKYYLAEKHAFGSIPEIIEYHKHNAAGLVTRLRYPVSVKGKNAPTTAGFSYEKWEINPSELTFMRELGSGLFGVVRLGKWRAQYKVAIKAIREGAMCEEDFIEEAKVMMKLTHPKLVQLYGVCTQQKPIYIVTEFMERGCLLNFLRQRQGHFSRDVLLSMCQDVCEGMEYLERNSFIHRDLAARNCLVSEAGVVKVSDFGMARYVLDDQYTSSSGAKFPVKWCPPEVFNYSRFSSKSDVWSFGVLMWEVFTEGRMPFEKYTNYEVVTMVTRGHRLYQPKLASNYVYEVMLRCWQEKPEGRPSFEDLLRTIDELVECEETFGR

[3] = target: T3, selected panels of kinases in HeLa and PC3 cell lysates (Homo sapiens, UniProt P46734); conditions: 10 uM, peptide DVkPSNVLINK, labeling site Lys2
T3 construct: endogenous in cells; host or cells: HeLa and PC3 cell lysates
T3 sequence (P46734 1-347): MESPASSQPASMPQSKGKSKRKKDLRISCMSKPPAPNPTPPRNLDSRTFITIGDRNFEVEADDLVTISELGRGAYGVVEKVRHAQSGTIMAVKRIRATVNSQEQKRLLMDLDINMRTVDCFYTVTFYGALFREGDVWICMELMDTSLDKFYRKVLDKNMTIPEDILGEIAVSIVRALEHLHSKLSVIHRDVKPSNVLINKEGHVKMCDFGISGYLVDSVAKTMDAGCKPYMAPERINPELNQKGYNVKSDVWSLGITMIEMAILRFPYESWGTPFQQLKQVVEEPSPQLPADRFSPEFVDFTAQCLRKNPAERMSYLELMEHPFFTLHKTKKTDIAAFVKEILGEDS

[4] = target: T4, selected panels of kinases in HeLa and PC3 cell lysates (Homo sapiens, UniProt P30291); conditions: 10 uM; Wee1; peptide […]k[…]; proteome HEL; labeling site Lys2
T4 construct: endogenous in cells; host or cells: HeLa and PC3 cell lysates
T4 sequence (P30291 whole entry): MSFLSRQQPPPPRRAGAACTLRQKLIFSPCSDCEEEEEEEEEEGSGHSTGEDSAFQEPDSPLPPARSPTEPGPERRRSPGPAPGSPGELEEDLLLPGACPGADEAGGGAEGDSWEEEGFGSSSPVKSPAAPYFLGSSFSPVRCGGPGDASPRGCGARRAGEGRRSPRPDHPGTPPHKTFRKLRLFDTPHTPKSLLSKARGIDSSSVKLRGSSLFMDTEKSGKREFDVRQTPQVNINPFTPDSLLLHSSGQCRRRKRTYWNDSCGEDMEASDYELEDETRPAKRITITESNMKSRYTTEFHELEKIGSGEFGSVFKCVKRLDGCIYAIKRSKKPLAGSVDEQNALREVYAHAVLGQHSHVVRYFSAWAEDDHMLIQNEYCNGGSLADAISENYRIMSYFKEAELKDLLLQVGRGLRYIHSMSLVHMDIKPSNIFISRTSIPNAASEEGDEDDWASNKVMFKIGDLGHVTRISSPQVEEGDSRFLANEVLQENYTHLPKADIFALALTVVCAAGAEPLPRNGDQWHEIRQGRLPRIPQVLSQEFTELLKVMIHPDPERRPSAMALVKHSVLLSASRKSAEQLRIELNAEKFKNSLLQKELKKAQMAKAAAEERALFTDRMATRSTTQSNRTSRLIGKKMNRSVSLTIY

[5] = target: T5, selected panels of kinases in HeLa and PC3 cell lysates (Homo sapiens, UniProt P24941); conditions: 10 uM, peptide DLk[…], labeling site Lys2
T5 construct: endogenous in cells; host or cells: HeLa and PC3 cell lysates

[6] = target: T6, selected panels of kinases in HeLa and PC3 cell lysates (Homo sapiens, UniProt Q9Y2U5); conditions: 10 uM, proteome PC3, labeling site Lys1
T6 construct: endogenous in cells; host or cells: HeLa and PC3 cell lysates
T6 sequence (Q9Y2U5 1-619): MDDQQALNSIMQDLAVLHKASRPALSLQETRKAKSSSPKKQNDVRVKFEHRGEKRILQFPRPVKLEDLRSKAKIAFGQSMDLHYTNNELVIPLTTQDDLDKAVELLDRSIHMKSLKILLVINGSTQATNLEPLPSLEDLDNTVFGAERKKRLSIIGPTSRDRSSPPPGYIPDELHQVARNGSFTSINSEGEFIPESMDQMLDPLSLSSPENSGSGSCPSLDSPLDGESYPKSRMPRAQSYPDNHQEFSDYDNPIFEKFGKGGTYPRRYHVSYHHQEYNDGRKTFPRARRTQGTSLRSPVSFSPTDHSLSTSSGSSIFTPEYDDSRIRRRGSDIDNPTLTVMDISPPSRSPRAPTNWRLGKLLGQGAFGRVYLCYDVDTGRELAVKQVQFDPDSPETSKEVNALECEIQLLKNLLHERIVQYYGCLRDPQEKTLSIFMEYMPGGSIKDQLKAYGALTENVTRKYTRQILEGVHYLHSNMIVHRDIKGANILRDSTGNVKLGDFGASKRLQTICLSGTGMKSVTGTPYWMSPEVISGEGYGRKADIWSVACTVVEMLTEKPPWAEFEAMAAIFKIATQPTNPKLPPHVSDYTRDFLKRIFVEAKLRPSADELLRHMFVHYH

[7] = target: T7, selected panels of kinases in HeLa and PC3 cell lysates (Homo sapiens, UniProt Q13043); conditions: 10 uM, peptide […]k[…], labeling site Lys1
T7 construct: endogenous in cells; host or cells: HeLa and PC3 cell lysates
T7 sequence (Q13043 1-487): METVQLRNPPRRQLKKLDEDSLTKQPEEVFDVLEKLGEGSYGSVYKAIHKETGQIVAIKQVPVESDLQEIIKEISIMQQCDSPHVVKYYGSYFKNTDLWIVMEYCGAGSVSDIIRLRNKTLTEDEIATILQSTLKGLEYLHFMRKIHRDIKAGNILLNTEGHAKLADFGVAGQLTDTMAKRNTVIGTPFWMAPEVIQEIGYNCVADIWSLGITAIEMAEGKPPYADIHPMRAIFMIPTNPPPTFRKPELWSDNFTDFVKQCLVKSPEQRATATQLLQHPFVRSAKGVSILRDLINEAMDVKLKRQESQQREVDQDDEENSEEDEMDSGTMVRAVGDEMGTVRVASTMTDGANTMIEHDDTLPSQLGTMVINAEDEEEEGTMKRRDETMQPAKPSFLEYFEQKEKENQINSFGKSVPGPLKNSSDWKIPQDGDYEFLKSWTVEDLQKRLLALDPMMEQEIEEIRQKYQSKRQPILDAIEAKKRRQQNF

T1 sequence (P49760 whole entry): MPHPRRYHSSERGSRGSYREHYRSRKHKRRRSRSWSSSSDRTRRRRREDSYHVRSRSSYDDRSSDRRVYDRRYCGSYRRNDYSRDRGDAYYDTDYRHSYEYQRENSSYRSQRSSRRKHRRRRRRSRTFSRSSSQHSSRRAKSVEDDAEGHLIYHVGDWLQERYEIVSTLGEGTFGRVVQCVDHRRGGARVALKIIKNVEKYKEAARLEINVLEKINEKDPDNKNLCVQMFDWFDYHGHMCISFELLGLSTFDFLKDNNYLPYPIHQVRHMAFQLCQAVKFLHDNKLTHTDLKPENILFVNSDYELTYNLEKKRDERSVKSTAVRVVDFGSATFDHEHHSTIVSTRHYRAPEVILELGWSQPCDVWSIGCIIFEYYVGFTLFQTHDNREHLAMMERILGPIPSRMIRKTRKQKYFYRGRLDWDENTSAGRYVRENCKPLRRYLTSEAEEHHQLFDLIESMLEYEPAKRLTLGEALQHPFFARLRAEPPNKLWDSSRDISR

Row | Structure (SMILES) | % Inhibiton, CLK2 [1] [%] | % Inhibition TEC [2] [%] | % Inhibiton, MAP2K3 ([3]; proteome HEL) [%] | % Inhibiton, MAP2K3 ([3]; proteome PC3) [%] | % Inhibition Wee1 [4] [%] | % Inhibiton, CDK2 ([5]; proteome HEL) [%] | % Inhibiton, CDK2 ([5]; proteome PC3) [%] | % Inhibiton, MAP3K2 ([6]; peptide ELAVk[…]) [%] | % Inhibiton, MAP3K2 ([6]; peptide […]k[…]) [%] | % Inhibiton, MST1 ([7]; proteome HEL) [%] | % Inhibiton, MST1 ([7]; proteome PC3) [%]
1 | COc1cc(C(=O)N2CCC(N3CCN(C)CC3)CC2)ccc1Nc1ncc2c(n1)N(C1CCCC1)c1ccccc1C(=O)N2C [Compound 25, 11-cyclopentyl-2-((2-methoxy-4-(4-(4-methylpiperazin-1-yl)piperidine-1-carbonyl)phenyl)amino)-5-methyl-5H-benzo[e]pyrimido[5,4-b][1,4]diazepin-6(11H)-one] | -17.0 | 8.9 | 11.8 | -7.0 | 11.1 | 9.4 | 5.0 | 15.5 | 23.7 | -9.9 | -0.157
2 | CCOc1cc(C(=O)N2CCC(N3CCN(C)CC3)CC2)ccc1Nc1ncc2c(n1)N(C1CCCC1)c1ccccc1C(=O)N2C [Compound 26] | 9.1 | 5.8 | 10.9 | 0.8 | 2.9 | 7 | -6.7 | -11.2 | -12.3 | 15.9 | -17.2
